Assay results taken from patent US12612387B2, “RAS inhibitors and methods of using the same” (Jazz Pharmaceuticals Ireland Limited, priority 2020, dated 2026).

Columns and labels:
K-RAS G12C = target: T1, K-RAS G12C (Homo sapiens, UniProt P01116, G12C); test: Compound depletion assay, K-RAS G12C; type: binding; details: G12C protein 20 μM, compound 8 μM, 25° C.
T1 construct: His tag; purchased Stratech
Experimental: (§1) Compound Depletion Assay Method
(§2) Lyophilized human K-RAS (12 Cys) protein (His tag) and human K-RAS (12 Asp) protein (His tag) were purchased from Stratech and reconstituted at 30 μM in water. The protein concentration of K-RAS G12C and K-RAS G12D was adjusted to 20 μM in K-RAS Assay Buffer (20 mM HEPES pH 7.5, 150 mM NaCl, 1 mM MgCl2). A 49 μl aliquot of protein solution was transferred to 1.5 ml eppendorfs and incubated at room temperature for 10 minutes. A 1 μl aliquot of compound solution in DMSO was added to the protein solutions in the 1.5 ml eppendorfs to initiate the reaction, with a final assay compound concentration of 8 μM. Reactions were agitated at 25° C., 700 rpm. At each time point (0, 30, 180, 360, 1440 minutes), 10 μl of the reaction mixture was removed, added to 30 μl quench solution (0.3% formic acid, 75 nM propranolol in acetonitrile) to stop the reaction and stored at 4° C. Once all reactions were quenched, the samples were centrifuged at 16000 g for 10 minutes to pellet the protein and salts. A 10 μl aliquot of supernatant containing compound was diluted in 50:50 acetonitrile:H2O in a 96 well plate. The plates were heat sealed and the samples analysed by LC-MS/MS to determine the concentration of compound remaining in the samples. To determine the reaction progress, the compound signal was normalized to the internal standard signal (propranolol). The decrease in free compound concentration is shown as a percentage over time, with the […] at time zero fixed at one hundred percent. Compound is assumed to be completely depleted when no longer detectable with a double blank sample as reference.

K-RAS G12D = target: T2, K-RAS G12D (Homo sapiens, UniProt P01116, G12D); test: Compound depletion assay, K-RAS G12D; type: binding; details: G12D protein 20 μM, compound 8 μM, 25° C.
T2 construct: His tag; purchased Stratech
Experimental: as §1, §2

T1 sequence (P01116 1-188 isoform P01116-2 G12C): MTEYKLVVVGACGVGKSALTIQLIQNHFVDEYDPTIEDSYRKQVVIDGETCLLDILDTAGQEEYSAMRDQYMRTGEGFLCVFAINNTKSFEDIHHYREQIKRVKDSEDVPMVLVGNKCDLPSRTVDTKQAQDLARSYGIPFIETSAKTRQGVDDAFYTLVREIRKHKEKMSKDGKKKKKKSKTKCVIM
T2 sequence (P01116 1-188 isoform P01116-2 G12D): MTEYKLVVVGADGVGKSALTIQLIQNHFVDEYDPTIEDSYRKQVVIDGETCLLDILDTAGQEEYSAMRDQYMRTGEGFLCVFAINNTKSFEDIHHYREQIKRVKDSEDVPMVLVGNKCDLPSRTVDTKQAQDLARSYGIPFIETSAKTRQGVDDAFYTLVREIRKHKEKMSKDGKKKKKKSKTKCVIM

| 3 hr Category (compound remaining at timepoint) (K-RAS G12C) | 6 hr Category (compound remaining at timepoint) (K-RAS G12C) | 24 hr Category (compound remaining at timepoint) (K-RAS G12C) | 30 min Category (compound remaining at timepoint) (K-RAS G12D) | 3 hr Category (compound remaining at timepoint) (K-RAS G12D) | 6 hr Category (compound remaining at timepoint) (K-RAS G12D) | 24 hr Category (compound remaining at timepoint) (K-RAS G12D) | 30 min Category (compound remaining at timepoint) (K-RAS G12C) | Compound |
| --- | --- | --- | --- | --- | --- | --- | --- | --- |
| A (≥70% compound remaining at timepoint) |  | A (≥70% compound remaining at timepoint) |  | A (≥70% compound remaining at timepoint) |  | A (≥70% compound remaining at timepoint) |  | C=CC(=O)N1CCN(c2cc(C(=O)NCc3ccccc3)nc(OC[C@@H]3CCCN3C)n2)CC1 [Example 14, N-benzyl-2-[[(2S)-1-methylpyrrolidin-2-yl]methoxy]-6-(4-prop-2-enoylpiperazin-1-yl)pyrimidine-4-carboxamide] |
| A (≥70% compound remaining at timepoint) |  | A (≥70% compound remaining at timepoint) |  | A (≥70% compound remaining at timepoint) |  | A (≥70% compound remaining at timepoint) |  | C=CC(=O)N1CCN(c2cc(C(=O)Nc3cccc4[nH]ncc34)nc(OC[C@@H]3CCCN3C)n2)CC1 [Example 22, N-(1H-indazol-4-yl)-2-[[(2S)-1-methylpyrrolidin-2-yl]methoxy]-6-(4-prop-2-enoylpiperazin-1-yl)pyrimidine-4-carboxamide] |
| A (≥70% compound remaining at timepoint) |  | A (≥70% compound remaining at timepoint) |  | A (≥70% compound remaining at timepoint) |  | A (≥70% compound remaining at timepoint) |  | C=CC(=O)N1CCN(c2cc(C(=O)Nc3cccc4ccccc34)nc(-c3cnn(C)c3)n2)CC1 [Example 10, 2-(1-methylpyrazol-4-yl)-N-(1-naphthyl)-6-(4-prop-2-enoylpiperazin-1-yl)pyrimidine-4-carboxamide] |
| A (≥70% compound remaining at timepoint) | A (≥70% compound remaining at timepoint) |  | A (≥70% compound remaining at timepoint) | A (≥70% compound remaining at timepoint) | A (≥70% compound remaining at timepoint) |  | A (≥70% compound remaining at timepoint) | C=CC(=O)N1CCN(c2cc(C(=O)Nc3cc(O)cc4ccccc34)nc(-c3ccccc3)n2)C[C@@H]1CC#N [Example 24, 6-[(3S)-3-(cyanomethyl)-4-prop-2-enoyl-piperazin-1-yl]-N-(3-hydroxy-1-naphthyl)-2-phenyl-pyrimidine-4-carboxamide] |

The next lines start with the compound.

| Compound | 3 hr Category (compound remaining at timepoint) (K-RAS G12C) | 6 hr Category (compound remaining at timepoint) (K-RAS G12C) | 24 hr Category (compound remaining at timepoint) (K-RAS G12C) | 30 min Category (compound remaining at timepoint) (K-RAS G12D) | 3 hr Category (compound remaining at timepoint) (K-RAS G12D) | 6 hr Category (compound remaining at timepoint) (K-RAS G12D) | 24 hr Category (compound remaining at timepoint) (K-RAS G12D) | 30 min Category (compound remaining at timepoint) (K-RAS G12C) |
| --- | --- | --- | --- | --- | --- | --- | --- | --- |
| C=CC(=O)N1CCN(c2cc(C(=O)Nc3cccc4ccccc34)nc(-c3cccnc3)n2)CC1 [Example 09, N-(1-naphthyl)-6-(4-prop-2-enoylpiperazin-1-yl)-2-(3-pyridyl)pyrimidine-4-carboxamide] | A (≥70% compound remaining at timepoint) | A (≥70% compound remaining at timepoint) | B (30%-70% compound remaining at timepoint) | A (≥70% compound remaining at timepoint) | A (≥70% compound remaining at timepoint) | A (≥70% compound remaining at timepoint) | A (≥70% compound remaining at timepoint) |  |
| C=CC(=O)N1CCN(c2cc(C(=O)Nc3cc(O)cc4ccccc34)nc(NCc3cnn(C)c3)n2)C[C@@H]1CC#N [Example 36, 6-[(3S)-3-(cyanomethyl)-4-prop-2-enoyl-piperazin-1-yl]-N-(3-hydroxy-1-naphthyl)-2-[(1-methylpyrazol-4-yl)methylamino]pyrimidine-4-carboxamide] | A (≥70% compound remaining at timepoint) | B (30%-70% compound remaining at timepoint) |  | A (≥70% compound remaining at timepoint) | A (≥70% compound remaining at timepoint) | A (≥70% compound remaining at timepoint) |  | A (≥70% compound remaining at timepoint) |
| C=CC(=O)N1CCN(c2cc(C(=O)Nc3cc(O)cc4ccccc34)nc(NCC3CCCN3C)n2)C[C@@H]1CC#N (stereo partly drawn) [Example 45, 6-[(3S)-3-(cyanomethyl)-4-prop-2-enoyl-piperazin-1-yl]-N-(3-hydroxy-1-naphthyl)-2-[(1-methylpyrrolidin-2-yl)methylamino]pyrimidine-4-carboxamide] | C (≤30% compound remaining at timepoint) | C (≤30% compound remaining at timepoint) |  | A (≥70% compound remaining at timepoint) | A (≥70% compound remaining at timepoint) | A (≥70% compound remaining at timepoint) |  | B (30%-70% compound remaining at timepoint) |
| C=CC(=O)N1CCN(c2cc(C(=O)N3CCOc4ccccc43)nc(OC[C@@H]3CCCN3C)n2)CC1 [Example 16, 1-[4-[6-(2,3-dihydro-1,4-benzoxazine-4-carbonyl)-2-[[(2S)-1-methylpyrrolidin-2-yl]methoxy]pyrimidin-4-yl]piperazin-1-yl]prop-2-en-1-one] | A (≥70% compound remaining at timepoint) |  | A (≥70% compound remaining at timepoint) |  | A (≥70% compound remaining at timepoint) |  | A (≥70% compound remaining at timepoint) |  |
| C=CC(=O)N1CCN(c2cc(C(=O)Nc3cccc4ccccc34)nc(N(C)CCN(C)C)n2)CC1 [Example 21, 2-[2-(dimethylamino)ethyl-methyl-amino]-N-(1-naphthyl)-6-(4-prop-2-enoylpiperazin-1-yl)pyrimidine-4-carboxamide] | A (≥70% compound remaining at timepoint) |  | A (≥70% compound remaining at timepoint) |  | A (≥70% compound remaining at timepoint) |  | A (≥70% compound remaining at timepoint) |  |
| C=CC(=O)N1CCN(c2cc(C(=O)Nc3cc(O)cc4ccccc34)nc(-c3ccncc3)n2)C[C@@H]1CC#N [Example 26, 6-[(3S)-3-(cyanomethyl)-4-prop-2-enoyl-piperazin-1-yl]-N-(3-hydroxy-1-naphthyl)-2-(4-pyridyl)pyrimidine-4-carboxamide] | A (≥70% compound remaining at timepoint) | A (≥70% compound remaining at timepoint) |  | A (≥70% compound remaining at timepoint) | A (≥70% compound remaining at timepoint) | A (≥70% compound remaining at timepoint) |  | A (≥70% compound remaining at timepoint) |
